Measured values as given in patent US20230135635A1, “INHIBITORS OF ULK1/2 AND METHODS OF USING SAME” (SALK INSTITUTE FOR BIOLOGICAL STUDIES, priority 2020, published 2023).

Columns and labels:
[1] = target: T1, recombinant human ULK1 protein (1-649) (Homo sapiens, UniProt O75385); test: ULK1 inhibition assay (ADP Glo); format: biochemical; conditions: Table 3
T1 construct: recombinant human ULK1 protein (1-649, SignalChem #U01-11G); purchased SignalChem U01-11G
T1 sequence (O75385 1-649): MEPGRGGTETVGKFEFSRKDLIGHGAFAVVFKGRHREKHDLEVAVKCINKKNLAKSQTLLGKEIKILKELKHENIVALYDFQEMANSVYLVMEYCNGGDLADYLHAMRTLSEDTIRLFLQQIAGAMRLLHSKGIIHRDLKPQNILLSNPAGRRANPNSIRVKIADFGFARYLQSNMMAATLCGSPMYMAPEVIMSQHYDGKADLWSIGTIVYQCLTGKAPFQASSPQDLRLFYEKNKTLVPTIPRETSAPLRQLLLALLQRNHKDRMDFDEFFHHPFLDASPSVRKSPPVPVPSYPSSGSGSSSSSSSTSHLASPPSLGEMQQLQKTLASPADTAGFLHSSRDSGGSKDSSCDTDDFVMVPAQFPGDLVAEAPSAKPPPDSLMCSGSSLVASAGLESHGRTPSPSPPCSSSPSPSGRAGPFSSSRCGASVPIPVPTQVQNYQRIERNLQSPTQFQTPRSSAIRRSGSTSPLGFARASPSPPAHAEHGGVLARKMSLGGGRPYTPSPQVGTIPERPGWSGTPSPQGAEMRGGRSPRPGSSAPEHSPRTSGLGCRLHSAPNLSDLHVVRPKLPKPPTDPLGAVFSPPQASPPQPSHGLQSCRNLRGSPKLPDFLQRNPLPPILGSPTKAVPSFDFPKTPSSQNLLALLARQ
Method in brief: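 Recombinant ULK1 (2 ug/mL) phosphorylated myelin basic protein (80 ug/mL) at 25 uM ATP; ADP formed was detected by ADP-Glo after 1 h. Compounds ran in triplicate, 16-dose 3-fold serial dilution from 30 uM, to give IC50.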

NanoLuc®-ULK1 Fusion = target: T2, NanoLuc®-ULK1 Fusion (Homo sapiens, UniProt O75385); test: ULK1 NanoBRET assay in HEK293T cells; format: cell-based; conditions: Table 3
T2 construct: host or cells: HEK293T
T2 sequence (O75385 1-1050): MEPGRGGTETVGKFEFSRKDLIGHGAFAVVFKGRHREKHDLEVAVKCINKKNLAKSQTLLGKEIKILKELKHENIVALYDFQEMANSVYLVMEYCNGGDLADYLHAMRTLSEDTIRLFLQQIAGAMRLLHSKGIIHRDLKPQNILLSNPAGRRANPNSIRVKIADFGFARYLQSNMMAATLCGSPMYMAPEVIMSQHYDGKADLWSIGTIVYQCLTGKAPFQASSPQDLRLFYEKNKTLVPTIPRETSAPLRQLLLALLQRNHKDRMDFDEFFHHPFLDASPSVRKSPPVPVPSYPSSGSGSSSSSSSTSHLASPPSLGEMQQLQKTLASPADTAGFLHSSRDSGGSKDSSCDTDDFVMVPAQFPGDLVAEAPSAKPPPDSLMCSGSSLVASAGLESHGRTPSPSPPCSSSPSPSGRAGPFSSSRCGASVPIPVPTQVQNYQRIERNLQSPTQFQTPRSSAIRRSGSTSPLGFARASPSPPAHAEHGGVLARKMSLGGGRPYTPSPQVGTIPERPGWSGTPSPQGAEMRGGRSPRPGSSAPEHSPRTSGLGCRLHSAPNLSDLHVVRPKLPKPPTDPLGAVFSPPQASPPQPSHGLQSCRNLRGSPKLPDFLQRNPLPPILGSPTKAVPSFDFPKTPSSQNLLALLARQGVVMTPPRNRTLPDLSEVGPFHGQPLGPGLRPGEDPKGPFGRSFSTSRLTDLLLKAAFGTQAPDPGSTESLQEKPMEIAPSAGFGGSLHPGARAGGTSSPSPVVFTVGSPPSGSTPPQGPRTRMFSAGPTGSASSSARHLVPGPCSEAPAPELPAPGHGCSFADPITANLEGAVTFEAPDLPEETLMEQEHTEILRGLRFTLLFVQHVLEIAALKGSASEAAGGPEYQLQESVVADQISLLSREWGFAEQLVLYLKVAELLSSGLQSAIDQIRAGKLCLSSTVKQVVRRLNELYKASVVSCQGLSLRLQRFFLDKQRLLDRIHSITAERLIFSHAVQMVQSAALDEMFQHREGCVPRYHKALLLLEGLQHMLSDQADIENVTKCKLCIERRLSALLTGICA
Experimental: IC50s were also measured by ULK1 NanoBRET assay according to the following protocol: Human embryonic kidney cells (HEK293T) were transfected with NanoLuc®-ULK1 Fusion Vector (Promega #NV2211) using jetPRIME transfection reagent (Polyplus Transfection #114-15). Following 24 h, cells were trypsinized and resuspended in Opti-MEM® I (1×), Reduced Serum Medium (Gibco, #11058-021). Approximately, 7,000 cells per well (in 34 μL total volume) were replated into non-binding surface 384 well plates. Complete NanoBRET 20× Tracer K-5 reagent was prepared according to the manufacturer's directions and 2 μL were added to each well of the 384 plate (assay plate). The assay plate was mixed on an orbital shaker for 15 seconds at 700 rpm. Compounds were serially diluted at 200× final concentration in 100% DMSO, then diluted to 10× final concentration in assay media (Opti-MEM® I, Reduced Serum Medium). Next, 4 μL 10× test compounds were added to each well of the assay plate, followed by mixing at 700 rpm for 15 seconds. The assay plate was incubated for 2 h in a 37 C incubator with 5% CO2 and then equilibrated to RT for 15 min. The 3× Complete Substrate plus Inhibitor Solution was prepared according to the manufacturer's directions with a concentration of Extracellular NanoLuc® Inhibitor of 60 μM to be used at a working concentration of […]. The 3× Complete Substrate plus Inhibitor Solution was mixed and 20 μL per well was added to the assay plate and incubated at RT for 2-3 min. Donor emission wavelength (450 nm) and acceptor emission wavelength (610 nm) were measured using an assay compatible luminometer (see manufacturer's specifications).

Question: Which IC50 [1] does the source give for `CNC(=O)c1ccccc1Nc1nc(Nc2ccc3c(c2)OCCO3)ncc1C(F)(F)F` [Compound E7, 2-((2-((2,3-Dihydrobenzo[b][1,4]dioxin-6-yl)amino)-5-(trifluoromethyl)pyrimidin-4-yl)amino)-N-methylbenzamide] here?
Answer: Its IC50 is 5 to 100 nM.

Question: What about the IC50 (NanoLuc®-ULK1 Fusion) of the same molecule?
Answer: Its IC50 is greater than 100 nM.
